What was measured:
Human dermal fibroblasts [1] = assay: RT-PCR analysis of mRNA levels of ECM components after atRA treatment; assay type: cell-based; details: fold induction (+) or suppression (−) vs control; 10^-7 M, 24 hours
Protocol: (§1) Human dermal fibroblasts were grown in DMEM cell culture media containing 10% fetal bovine serum and 1% penicillin/streptomycin (Invitrogen). For all experiments, third-passage fibroblasts were used one day after reaching confluence. […] After 24 hour treatment RNA and protein was isolated and analyzed for the expression of components of ECM and transcriptional regulators.
(§2) Total RNA from various human tissues was purified using RNAwiz (Ambion, USA) and subjected to subsequent DNase I treatment using the DNA-Free kit (Ambion). Total RNA from cancer cells was purified by using 4PCRmini kit (Ambion). First-strand cDNAs were synthesized with Superscript III reverse transcriptase (Invitrogen, USA) and 5 μg of total RNA using oligo d(T) priming in a final reaction volume of 50 μL
The cDNA was amplified by PCR using the 2.5 U Hot-Firepol (Solis BioDyne, Estonia) and buffer Yellow (Naxo, Estonia). Reaction was performed in a 10 ul volume, using 0.5 ul cDNA as a template. Following primer sets (Table 21) were designed for this study:
The thermal cycling protocols were as follows: initial denaturation of template DNA and heat-activation of polymerase (15 min at 95° C.) followed by 40 cycles denaturation (30 sec at 95° C.) annealing (58° C.) and extension (90 sec). PCR products were analysed on a 1% agarose gel. For sequencing, PCR reactions were purified using PCR purification kit (Qiagen, USA) and subcloned into TOPO TA cloning vector. Fragments were sequenced at GATC Biotech sequencing services (Germany).

Human dermal fibroblasts [2] = assay: Western blot analysis of protein levels of ECM components after atRA treatment; assay type: cell-based; details: fold induction (+) or suppression (−) vs control; 10^-7 M, 24 hours
Protocol: as §1
Cells were lysed in Cell Disruption Buffer supplied with the Paris kit (Ambion) and protein concentration was determined using Bradford reagent (Pierce). Proteins were separated on 10% SDS-PAAG and transferred into the PVDF membrane (Biorad). […] Signal was detected using ECL reagent (Pierce).

[3] = tested on: dermal fibroblasts isolated from 17 individuals; assay: Real time RT-PCR of ECM components, nuclear hormone receptors and coregulators in fibroblasts from 17 individuals; assay type: cell-based, human
Protocol: Total RNA was extracted from cells using RNA aqueous kit (Ambion, USA). First-strand cDNAs were synthesized with Superscript III reverse transcriptase (Invitrogen, USA) and 1 μg of total RNA using oligo d(T) priming in a final reaction volume of 40 μL.
Levels of specific mRNAs were measured by real-time RT-PCR using Platinum SYBR Green qPCR SuperMix UDG (Invitrogen) according the protocol on the LightCycler 2.0 (Roche, US). The cycling program steps were: for one cycle 50° C. 2 min, for one cycle 95° C. 2 min and for 45 cycles: 95° C. 10 s, 60° C. 10 s, 72° C. 10 s. All samples were run in triplicates. Results were analyzed with the comparative Ct method (from Applied Biosystems manual; Livak and Schmittgen, 2001). Every sample was normalized for the housekeeping gene GAPDH. Transcript levels in the atRA and TGFb1 treated samples were compared to control samples.

[4] = tested on: skin fibroblasts from 30 individuals; assay: Combined score of expression stimulation of 5 genes in fibroblast isolates (FIG. 1); assay type: cell-based, human; details: 24 hour treatment, atRA 10^-7 M, Matrixyl 1 μM, KappaElastin 1 μM
Protocol: as §1, §2
The cDNA was amplified by PCR using the 2.5 U Hot-Firepol (Solis BioDyne, Estonia) and buffer Yellow (Naxo, Estonia). Reaction was performed in a 10 ul volume, using 0.5 ul cDNA as a template. Following primer sets were designed for this study:
The combined score of expression stimulation of 5 genes was calculated and blotted for each fibroblast isolate. […] This biological variation provides a good biological rational to use molecular diagnostics for matching cosmetics product and skin cells of specific individual (personalized cosmetics).

[5] = fibroblasts from 17 individuals, 1 μM, 24 hours

SMILES: CC1=C(/C=C/C(C)=C/C=C/C(C)=C/C(=O)O)C(C)(C)CCC1 [all trans retinoic acid, all-trans retinoic acid]
- COL1A1 mRNA level (Human dermal fibroblasts [1]): 2 fold
- COL1A2 mRNA level (Human dermal fibroblasts [1]): 4 fold
- COL2A1 mRNA level (Human dermal fibroblasts [1]): 5 fold
- COL3A1 mRNA level (Human dermal fibroblasts [1]): 2 fold
- COL4A1 mRNA level (Human dermal fibroblasts [1]): 1 fold
- COL4A2 mRNA level (Human dermal fibroblasts [1]): 3 fold
- COL4A3 mRNA level (Human dermal fibroblasts [1]): 2 fold
- COL4A4 mRNA level (Human dermal fibroblasts [1]): 1 fold
- COL7A1 mRNA level (Human dermal fibroblasts [1]): 2 fold
- Elastin ELN mRNA level (Human dermal fibroblasts [1]): 4 fold
- FBLN5 mRNA level (Human dermal fibroblasts [1]): 2 fold
- FN 1 mRNA level (Human dermal fibroblasts [1]): 1 fold
- Fibrillin-1 mRNA level (Human dermal fibroblasts [1]): 1 fold
- Fibrillin-2 mRNA level (Human dermal fibroblasts [1]): 1 fold
- Fibulin-2 mRNA level (Human dermal fibroblasts [1]): 3 fold
- Lumican mRNA level (Human dermal fibroblasts [1]): 1 fold
- Lysyl oxidase mRNA level (Human dermal fibroblasts [1]): 8 fold
- MMP2 mRNA level (Human dermal fibroblasts [1]): 2 fold
- MMP7 mRNA level (Human dermal fibroblasts [1]): 2 fold
- MMP9 mRNA level (Human dermal fibroblasts [1]): 2 fold
- MMP12 mRNA level (Human dermal fibroblasts [1]): 2 fold
- MMP13 mRNA level (Human dermal fibroblasts [1]): 5 fold
- MMP19 mRNA level (Human dermal fibroblasts [1]): 1 fold
- MMP20 mRNA level (Human dermal fibroblasts [1]): 1 fold
- MMP-11 mRNA level (Human dermal fibroblasts [1]): 7 fold
- TIMP1 mRNA level (Human dermal fibroblasts [1]): 2 fold
- TIMP3 mRNA level (Human dermal fibroblasts [1]): 3 fold
- TIMP4 mRNA level (Human dermal fibroblasts [1]): 1 fold
- aggrecan mRNA level (Human dermal fibroblasts [1]): 1 fold
- decorin mRNA level (Human dermal fibroblasts [1]): 6 fold
- fibromodulin mRNA level (Human dermal fibroblasts [1]): 1 fold
- COL1A1 protein level (Human dermal fibroblasts [2]): 2 fold
- COL1A2 protein level (Human dermal fibroblasts [2]): 2 fold
- COL2A1 protein level (Human dermal fibroblasts [2]): 3 fold
- COL3A1 protein level (Human dermal fibroblasts [2]): 2 fold
- COL4A1 protein level (Human dermal fibroblasts [2]): 1 fold
- COL4A2 protein level (Human dermal fibroblasts [2]): 1 fold
- COL4A3 protein level (Human dermal fibroblasts [2]): 1 fold
- COL4A4 protein level (Human dermal fibroblasts [2]): 1 fold
- COL5A1 protein level (Human dermal fibroblasts [2]): 1 fold
- Elastin ELN protein level (Human dermal fibroblasts [2]): 2 fold
- Lysyl oxidase protein level (Human dermal fibroblasts [2]): 3 fold
- MMP2 protein level (Human dermal fibroblasts [2]): 2 fold
- MMP-11 protein level (Human dermal fibroblasts [2]): 3 fold
- decorin protein level (Human dermal fibroblasts [2]): 4 fold
- variation between individuals of effect on expression of nuclear hormone receptors, compared with co-regulators ([3]; cells treated with atRA, 17 individuals): less variation
- CBP expression in RA treatment compared to control, from-to between individuals [3, 5]: (from −2.15 to 3.17) fold
- COL1A1 expression in RA treatment compared to control, from-to between individuals [3, 5]: (from −6.25 to 3.25) fold
- COL1A2 expression in RA treatment compared to control, from-to between individuals [3, 5]: (from −3.13 to 1.83) fold
- COL3A1 expression in RA treatment compared to control, from-to between individuals [3, 5]: (from −2.28 to 2.89) fold
- COL4A1 expression in RA treatment compared to control, from-to between individuals [3, 5]: (from −3.97 to 2.18) fold
- COL5A1 expression in RA treatment compared to control, from-to between individuals [3, 5]: (from −4.76 to 2.39) fold
- COL5A2 expression in RA treatment compared to control, from-to between individuals [3, 5]: (from −1.41 to 2.94) fold
- CTGF expression in RA treatment compared to control, from-to between individuals [3, 5]: (from −2.4 to 2.64) fold
- ELN expression in RA treatment compared to control, from-to between individuals [3, 5]: (from −2.44 to 3.02) fold
- FN 1 transcr.v.1 expression in RA treatment compared to control, from-to between individuals [3, 5]: (from −3.63 to 1.14) fold
- Individual variation of gene expression in RA treatment: CBP [3, 5]: 5.32 fold
- Individual variation of gene expression in RA treatment: COL1A1 [3, 5]: 9.5 fold
- Individual variation of gene expression in RA treatment: COL1A2 [3, 5]: 4.96 fold
- Individual variation of gene expression in RA treatment: COL3A1 [3, 5]: 5.17 fold
- Individual variation of gene expression in RA treatment: COL4A1 [3, 5]: 6.15 fold
- Individual variation of gene expression in RA treatment: COL4A4 [3, 5]: 1.63 fold
- Individual variation of gene expression in RA treatment: COL5A1 [3, 5]: 7.15 fold
- Individual variation of gene expression in RA treatment: COL5A2 [3, 5]: 4.35 fold
- Individual variation of gene expression in RA treatment: CTGF [3, 5]: 5.04 fold
- Individual variation of gene expression in RA treatment: ELN [3, 5]: 5.46 fold
- Individual variation of gene expression in RA treatment: FN 1 transcr.v.1 [3, 5]: 4.77 fold
- Individual variation of gene expression in RA treatment: MMP1, collagenase 1 [3, 5]: 7.09 fold
- Individual variation of gene expression in RA treatment: MMP2 gelatinase [3, 5]: 5.05 fold
- Individual variation of gene expression in RA treatment: MMP3 stromelysin [3, 5]: 6.4 fold
- Individual variation of gene expression in RA treatment: MMP7 [3, 5]: 16.46 fold
- Individual variation of gene expression in RA treatment: MMP10, stromelysin 2 [3, 5]: 12 fold
- Individual variation of gene expression in RA treatment: MMP19 [3, 5]: 3.41 fold
- Individual variation of gene expression in RA treatment: NCOA1 [3, 5]: 5.68 fold
- Individual variation of gene expression in RA treatment: NCOA2 [3, 5]: 5.63 fold
- Individual variation of gene expression in RA treatment: NCOA3 [3, 5]: 6.16 fold
- Individual variation of gene expression in RA treatment: NCOA5 [3, 5]: 3.1 fold
- Individual variation of gene expression in RA treatment: NCOA6 [3, 5]: 3.43 fold
- Individual variation of gene expression in RA treatment: NCOA7 [3, 5]: 4.44 fold
- Individual variation of gene expression in RA treatment: NCOR1 [3, 5]: 4.2 fold
- Individual variation of gene expression in RA treatment: PC4 [3, 5]: 3.57 fold
- Individual variation of gene expression in RA treatment: PPARG [3, 5]: 4.59 fold
- Individual variation of gene expression in RA treatment: RARA [3, 5]: 4.44 fold
- Individual variation of gene expression in RA treatment: RARG [3, 5]: 3.37 fold
- Individual variation of gene expression in RA treatment: RXRA [3, 5]: 4.34 fold
- Individual variation of gene expression in RA treatment: RXRG [3, 5]: 4.01 fold
- Individual variation of gene expression in RA treatment: TIMP1 [3, 5]: 4.21 fold
- MMP1, collagenase 1 expression in RA treatment compared to control, from-to between individuals [3, 5]: (from −3.38 to 3.71) fold
- MMP2 gelatinase expression in RA treatment compared to control, from-to between individuals [3, 5]: (from −2.7 to 2.35) fold
- MMP3 stromelysin expression in RA treatment compared to control, from-to between individuals [3, 5]: (from −3.73 to 2.67) fold
- MMP7 expression in RA treatment compared to control, from-to between individuals [3, 5]: (from −14.77 to 1.69) fold
- MMP10, stromelysin 2 expression in RA treatment compared to control, from-to between individuals [3, 5]: (from −5.15 to 6.84) fold
- MMP19 expression in RA treatment compared to control, from-to between individuals [3, 5]: (from −2.4 to 1.01) fold
- NCOA1 expression in RA treatment compared to control, from-to between individuals [3, 5]: (from −2.99 to 2.69) fold
- NCOA2 expression in RA treatment compared to control, from-to between individuals [3, 5]: (from −1.95 to 3.68) fold
- NCOA3 expression in RA treatment compared to control, from-to between individuals [3, 5]: (from −2.02 to 4.14) fold
- NCOA5 expression in RA treatment compared to control, from-to between individuals [3, 5]: (from −1.25 to 1.85) fold
- NCOA6 expression in RA treatment compared to control, from-to between individuals [3, 5]: (from −1.44 to 1.99) fold
- NCOA7 expression in RA treatment compared to control, from-to between individuals [3, 5]: (from −1.85 to 2.59) fold
- NCOR1 expression in RA treatment compared to control, from-to between individuals [3, 5]: (from −2.23 to 1.97) fold
- PC4 expression in RA treatment compared to control, from-to between individuals [3, 5]: (from −1.8 to 1.77) fold
- PPARG expression in RA treatment compared to control, from-to between individuals [3, 5]: (from −1.64 to 2.95) fold
- RARA expression in RA treatment compared to control, from-to between individuals [3, 5]: (from −1.53 to 2.91) fold
- RARG expression in RA treatment compared to control, from-to between individuals [3, 5]: (from −1.45 to 1.92) fold
- RXRA expression in RA treatment compared to control, from-to between individuals [3, 5]: (from −1.75 to 2.59) fold
- RXRG expression in RA treatment compared to control, from-to between individuals [3, 5]: (from −2.02 to 1.99) fold
- induced or repressed expression of different genes (Col1A1, Col4A1, Elastin, MMP1, MMP7) ([3]; in different fibroblast isolates, 17 individuals, 1 μM, 24 hours): up to 8 fold
- variation between individual fibroblasts of expression of coactivators NCOA1, NCOA2 and NCOA3 ([3]; in response to atRA, 17 individuals): highest variation
- combined score of expression stimulation of 5 genes (COL1A1, COL2A1, elastin, proteoglycan, TIMP1) per fibroblast isolate [4]: 3 groups of fibroblasts that have different response
